# Target: 11-beta-hydroxysteroid dehydrogenase 1 (Rattus norvegicus, UniProt P16232)
# Assay: Inhibition Assay: The procedure for measuring the 11β-HSD1-inhibitory activity is as follows. The enzyme reaction and the measurement were carried out using a 384-well plate. The enzyme was prepared in accordance with Journal of Biological Chemistry, 2001, Vol. 276, p. 21343-21350. The reaction was carried out by adding a test compound at various concentrations to a reaction liquid consisting of a 5 mM phosphate buffer (pH 6.6), 200 nM cortisone, 40 μM reduced nicotinamide adenine dinucleotide phosphate (NADPH), and rat recombinant 11β-HSD1, followed by incubating at room temperature for one hour (10 μl/well). The test compound was prepared by dissolving in dimethyl sulfoxide (DMSO) such that a DMSO concentration reached 1% in the reaction liquid. After the enzyme reaction was completed, the enzyme inhibitory action was measured by detecting cortisol using a homogeneous time-resolved fluorescence (HTRF) method. Each of a d2-labeled cortisol containing 400 μM carbenoxolone and a cryptate-labeled cortisol antibody (CIS Bio International Co., Ltd.) was added at 5 μl/well, followed by incubating at room temperature for 2 hours, and then the fluorescence intensity was measured using a fluorophotometer (trade name: ARVO HTS 1420, Perkin Elmer/Wallac), and the enzyme inhibitory activity was calculated from the fluorescence intensity ratio of two wavelengths (665 nm/620 nm).The measurement results were calculated by averaging the values of 3 wells of the same condition. The ratio when DMSO was added instead of the test compound was taken as 0% and the ratio when 11β-HSD1 was not added was taken as 100%, thereby calculating the 50% inhibition concentration of the test compound as IC50 of the compound inhibitory activity.
# 11-beta-hydroxysteroid dehydrogenase 1, sequence (P16232 whole entry): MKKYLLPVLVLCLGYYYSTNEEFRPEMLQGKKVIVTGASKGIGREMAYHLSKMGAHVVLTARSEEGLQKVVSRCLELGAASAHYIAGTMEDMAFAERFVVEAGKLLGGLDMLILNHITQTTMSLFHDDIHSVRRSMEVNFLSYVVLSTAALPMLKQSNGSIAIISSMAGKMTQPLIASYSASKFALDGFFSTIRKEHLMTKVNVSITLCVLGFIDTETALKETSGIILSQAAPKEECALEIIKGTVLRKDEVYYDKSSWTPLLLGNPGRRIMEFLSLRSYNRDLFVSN
smiles,measurement,value
Cn1c(-c2ccc(C(N)=O)cc2F)nnc1C(C)(C)Oc1c(F)cc(Cl)cc1F [CLOFUTRIBEN],IC50,0.135 µM
CCn1c(-c2ccc(C(N)=O)cc2)nnc1C(C)(C)Oc1c(F)cc(Cl)cc1F,IC50,0.07 µM
CC(C)n1c(-c2ccc(C(N)=O)cc2F)nnc1C(C)(C)Oc1c(F)cc(F)cc1F,IC50,0.023 µM
Cn1c(-c2ccc(F)cc2Cl)nnc1C(C)(C)Oc1c(F)cc(F)cc1F,IC50,0.052 µM

# From ChEMBL document CHEMBL5726417, “Therapeutic agent for pain” (2017)
